Patent publication US20100183546A1, “Method for Increasing CD8+ Cytotoxic T Cell Responses and for Treating Multiple Sclerosis” (Baylor College of Medicine, priority 2003, published 2010)

system: CD8+ T cells in CD4-depleted PBMC; test: Precursor frequency analysis of CD8+ T cells recognizing MBP-derived peptides (split-well method, [3H]-thymidine proliferation); format: cell-based, human; conditions: MS patients vs healthy controls; p<0.05 for MBP111-119 and MBP87-95

Row | Substance | frequency of peptide-recognizing CD8+ T cells in MS patients compared with control subjects
1 | MBPVVHFFKNIV [SEQ ID NO. 1, Fragment of human MBP, amino acids 87-95] | considerably higher
2 | SLSRFSWGA [SEQ ID NO. 2, Fragment of human MBP, amino acids 111-119] | considerably higher
3 | immunodominant epitope (residues 830-838) of tetanus toxoid: synthetic peptide corresponding to an immunodominant peptide of tetanus toxoid (residues 830-838), used as control (QYIKANSKF; UniProt P04958 830-838, looked up, fragment) [reference compound] | did not differ significantly
